Measurements from article PMC12916490 (Molecular Psychiatry, 2025).

Assays:
hNET = target: T1, hNET (Homo sapiens, UniProt P23975); assay: Radioligand binding, hNET (N-methyl-[3H]nisoxetine)
T1 construct: expressed in transfected cells; host or cells: HEK 293 cells (membrane preparation)
Protocol: (§1) Binding affinities at human monoamine receptors and transporters were assessed as previously reported. A detailed description of the methodology is provided in the Supplementary information.
(§2) The IC50 values from the radioligand binding assays were determined by nonlinear regression, using three independent concentration-response curves fitted to a one-site model. The Cheng-Prusoff equation was used to calculate Kᵢ values for the competing ligands. EC50 values were determined by applying nonlinear regression to concentration-response curves. Bias factors (β) were calculated based on the relative intrinsic activity approach. More detailed information can be found in the Supplementary information. Mean values for total number of HTR, change in body temperature from pre to post session (Δ°C), and total distance traveled (cm) for each drug dose were compared (p < 0.05) via Welch’s ANOVA with Dunnett’s T3 post test, comparing all doses to respective vehicle controls (0 mg/kg). Welch’s ANOVA with Dunnett’s T3 post test was also used to compare drug concentrations, but the data were compared to DOM in this case. Dose–response relationships for HTR and locomotor activities were plotted using bell-shaped curve fits, while temperature change data were plotted using four-parameter non-linear regression curve fits. The ascending phase of the HTR curve for each drug was used to determine ED50 potency values from four parameter non-linear regression fits. For combined DOM and DOAM administration, the plasma, brain tissue, and brain dialysate drug concentrations were compared using paired t-tests (p < 0.05).
(§3) 3.1 Assessment of receptor and transporter binding affinities
(§4) Membrane preparations were prepared from cells transfected with the respective target. The membrane preparations were then incubated with selective radioligands at concentrations equal to the corresponding Kd and displacement of the ligand by the drugs was measured. The difference between total binding and nonspecific binding (determined in the presence of selective competitors) was defined as specific binding of the radioligand to the target receptor. The following transfected cell lines were used for the binding assays: HEK 293 cells (h5-HT1A, h5-HT2A, h5-HT2B, h5-HT2C, and hD2 receptors, hDAT, hNET, and hSERT), Chinese hamster ovary cells (hα 1A receptor), and Chinese hamster lung cells (hα 2A receptor).
(§5) 3.1.1 Membrane preparations for receptor and transporter binding
(§6) For producing membrane preparations, transfected cells were harvested with trypsin/EDTA, washed with ice-cold phosphate buffered saline, and then pelleted by centrifugation (210 × g for 5 min at 4 °C). The pellets were frozen and stored at -80 °C until use. Frozen pellets were resuspended in 20 m L (receptor binding) or 400 m L (transporter binding) buffer (20 mM HEPES -NaOH, 10 mM EDTA, pH 7.4), and homogenized at 1,100 × g for 20 s (receptor binding) or 560 × g for 15 s (transporter binding); the homogenates were then centrifuged at 48,000 × g for 30 min at 4 °C. For receptor binding assays, the supernatants were discarded and the pellets were resuspended in 20 mL buffer (20 mM HEPES-NaOH, 0.1 mM EDTA, pH 7.4) and homogenized at 1 ,100 × g for 20 s. Centrifugation and discarding of the supernatant were repeated once, and the final pellet was then resuspended in buffer and homogenized.
(§7) 3.1.2 Serotonin 5-HT1A and 5-HT2A receptor binding
(§8) Competitive binding at the h5-HT1A and h5-HT2A receptor was determined using 0.90 nM [ 3H]8-hydroxy-2-(di-n-propylamine)tetralin ([ 3H]8-OH-DPAT; h5-HT1A receptor agonist) and 0.40 nM [3H]ketanserin (h5-HT2 receptor antagonist) as radioligands. […]
(§9) binding of the radioligands was defined as difference between total binding (binding buffer alone) and nonspecific binding determined in the presence of 10 μM pindolol (h5-HT1A receptor antagonist) or 10 μM spiperone (h 5-HT2A receptor antagonist).

hSERT = target: T2, hSERT (Homo sapiens, UniProt P31645); assay: Radioligand binding, hSERT ([3H]citalopram)
T2 construct: expressed in transfected cells; host or cells: HEK 293 cells (membrane preparation)
T2 sequence (P31645 whole entry): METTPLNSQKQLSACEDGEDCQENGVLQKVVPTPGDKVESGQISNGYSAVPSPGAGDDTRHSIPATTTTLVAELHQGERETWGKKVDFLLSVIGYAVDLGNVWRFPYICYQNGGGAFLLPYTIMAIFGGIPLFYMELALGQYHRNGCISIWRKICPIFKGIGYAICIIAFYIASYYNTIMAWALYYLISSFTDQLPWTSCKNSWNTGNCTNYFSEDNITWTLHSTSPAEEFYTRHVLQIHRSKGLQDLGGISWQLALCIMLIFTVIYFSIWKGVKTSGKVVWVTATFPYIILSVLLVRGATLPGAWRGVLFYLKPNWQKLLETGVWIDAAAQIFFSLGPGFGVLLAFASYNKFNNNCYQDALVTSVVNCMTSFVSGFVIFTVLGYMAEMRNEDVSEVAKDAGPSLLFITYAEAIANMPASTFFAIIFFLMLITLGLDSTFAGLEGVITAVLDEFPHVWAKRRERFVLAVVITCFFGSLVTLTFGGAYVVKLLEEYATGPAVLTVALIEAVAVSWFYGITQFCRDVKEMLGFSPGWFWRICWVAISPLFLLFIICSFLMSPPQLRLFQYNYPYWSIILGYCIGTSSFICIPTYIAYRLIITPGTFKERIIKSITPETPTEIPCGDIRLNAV
Protocol: as §1, §2, §3, §4, §5, §6, §7, §8, §9

5-HT2A receptor = 5-HT2A receptor activation bias factors (relative intrinsic activity, 5-HT reference); type: cell-based, human; conditions: 5-HT as reference agonist; positive = preference for numerator pathway
Protocol: as §2
Bias factors close to 0 imply no bias toward either tested signaling pathway. Positive values indicate a preference for pathway 1, and negative values indicate a preference for pathway 2, relative to the reference agonist 5-HT. […]
the β-arrestin 2 molecule in the NanoBiT system) were seeded at a density of 50,000 cells per well in poly - D-lysine-coated 96-well plates in medium containing 10% dialyzed FBS. The plate was then incubated at […]
The following day, the cells were washed twice with 150 µL HBSS, and 100 µL HBSS was subsequently added to each well. Thereafter, 25 µL of substrate (1 :20 diluted in buffer) was added, and […]
agonist solutions was added, and the signal was monitored for 2 h. Drug dilutions in HBSS were made from 10 mM stock solutions in DMSO , yielding concentration ranges from 10 µM to 10 pM. All concentrations were run in duplicate and included the appropriate solvent controls. Efficacy was normalized to 5 -HT […]
3.2.3 Arachidonic acid release
Arachidonic acid release was assessed as a marker for Gαi/o,12/13 mediated signaling.
NIH/3T3 cells stably expressing the 5 -HT2A receptor were seeded at a density of 75,000 cells per well in a poly-D-lysine-coated 48-well plate. The following day, the cells were labeled with 300 μL [ 3H]arachidonic […]
Thereafter, the cells were washed 3 times for
(10 mM) of test substances were prepared in DMSO. The final dilution series of test substances dissolved […]
Thereafter, the plate was put on ice, and 400 μL incubation supernatant per well was transferred int o scintillation vials containing scintillation fluid (Ultimagold, Perkin Elmer, Schwerzenbach, Switzerland). The remaining supernatant was removed, and the cells were lysed with 1% sodium dodecyl sulfate lysis buffer. The obtained cell lysate was transferred into scintillation vials containing scintillation fluid. Radioactivity was measured on a liquid scintillation counter (Packard 1900 TR Tri-Carb Liquid Scintillation Counter; Packard Instrument Company). Efficacy was normalized to 5-HT activity.
3.2.4 Calculation of bias factors […]
using 5-HT as the reference agonist.
RApathway = EC50, i = EC50, ref×Emax,i […]
Then, the obtained RA values were used to calculate the bias factor (β) for each pathway combination. […]
pathway 1 over pathway 2. Brown-Forsythe and Welch ANOVA analyses were applied to estimate the […]

[1] = hSERT Ki, mean (95% CI), HEK 293 membranes

T1 sequence (P23975 whole entry): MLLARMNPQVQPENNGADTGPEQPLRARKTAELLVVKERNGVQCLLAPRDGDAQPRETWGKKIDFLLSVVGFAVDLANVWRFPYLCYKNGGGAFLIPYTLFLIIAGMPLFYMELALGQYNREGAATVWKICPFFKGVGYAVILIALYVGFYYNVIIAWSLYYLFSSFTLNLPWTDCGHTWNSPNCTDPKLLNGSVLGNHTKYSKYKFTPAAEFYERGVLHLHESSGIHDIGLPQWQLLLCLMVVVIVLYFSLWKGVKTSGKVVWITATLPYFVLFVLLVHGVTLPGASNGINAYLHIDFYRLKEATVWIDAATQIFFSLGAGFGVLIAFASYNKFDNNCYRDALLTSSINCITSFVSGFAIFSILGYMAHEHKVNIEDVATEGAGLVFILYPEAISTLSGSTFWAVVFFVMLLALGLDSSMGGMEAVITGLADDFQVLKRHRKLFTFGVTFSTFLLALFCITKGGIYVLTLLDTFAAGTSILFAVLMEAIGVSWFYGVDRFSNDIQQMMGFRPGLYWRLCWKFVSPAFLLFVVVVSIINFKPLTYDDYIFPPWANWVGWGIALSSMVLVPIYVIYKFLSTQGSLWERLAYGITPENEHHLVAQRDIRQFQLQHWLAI

Structure (SMILES): CCCCc1cc(OC)c(CC(C)N)cc1OC (stereo not shown) [DOBU, 4-butyl-2,5-dimethoxyamphetamine]
- Ki (hNET): > 8 µM
- Ki (hSERT; [1]): > 7 µM
- Bias factor β Gαi/o,12/13/Gαq (5-HT2A receptor): -0.61
- Bias factor β Gαi/o,12/13/β-arrestin 2 (5-HT2A receptor): 0.25
- Bias factor β β-arrestin 2/Gαq (5-HT2A receptor): -0.86

Structure (SMILES): COc1ccc(OC)c(CC(C)N)c1.Cl (stereo not shown) [2,5-DMA, 2,5-Dimethoxyamphetamine hydrochloride]
- Ki (hNET): > 8 µM
- Ki (hSERT; [1]): > 7 µM
- Bias factor β Gαi/o,12/13/Gαq (5-HT2A receptor): 0.37
- Bias factor β Gαi/o,12/13/β-arrestin 2 (5-HT2A receptor): 0.29
- Bias factor β β-arrestin 2/Gαq (5-HT2A receptor): 0.09

Structure (SMILES): CCCCCc1cc(OC)c(CC(C)N)cc1OC (stereo not shown) [DOAM, 4-amyl-2,5-dimethoxyamphetamine]
- Ki (hNET): > 8 µM
- Ki (hSERT; Ki SERT, text value (range DAT and SERT 3.6–4.6)): 4.6 µM
- Ki (hSERT; [1]): 4.63 µM
- Bias factor β Gαi/o,12/13/Gαq (5-HT2A receptor): -0.30
- Bias factor β Gαi/o,12/13/β-arrestin 2 (5-HT2A receptor): 0.43
- Bias factor β β-arrestin 2/Gαq (5-HT2A receptor): -0.73

Structure (SMILES): CCc1cc(OC)c(CC(C)N)cc1OC (stereo not shown) [DOET, 4-ethyl-2,5-dimethoxyamphetamine]
- Ki (hNET): > 8 µM
- Ki (hSERT; [1]): > 7 µM
- Bias factor β Gαi/o,12/13/Gαq (5-HT2A receptor): 0.16
- Bias factor β Gαi/o,12/13/β-arrestin 2 (5-HT2A receptor): 0.07
- Bias factor β β-arrestin 2/Gαq (5-HT2A receptor): 0.08

Structure (SMILES): CCCc1cc(OC)c(CC(C)N)cc1OC.Cl (stereo not shown) [DOPR, 4-propyl-2,5-dimethoxyamphetamine hydrochloride]
- Ki (hNET): > 8 µM
- Ki (hSERT; [1]): > 7 µM
- Bias factor β Gαi/o,12/13/Gαq (5-HT2A receptor): -0.53
- Bias factor β Gαi/o,12/13/β-arrestin 2 (5-HT2A receptor): 0.11
- Bias factor β β-arrestin 2/Gαq (5-HT2A receptor): -0.64

Structure (SMILES): COc1cc(CC(C)N)c(OC)cc1C (stereo not shown) [DOM, 4-methyl-2,5-dimethoxyamphetamine]
- Ki (hNET): > 8 µM
- Ki (hSERT; [1]): > 7 µM
- Bias factor β Gαi/o,12/13/Gαq (5-HT2A receptor): 0.04
- Bias factor β Gαi/o,12/13/β-arrestin 2 (5-HT2A receptor): 0.39
- Bias factor β β-arrestin 2/Gαq (5-HT2A receptor): -0.35
